Experimental data taken from patent publication US20120010075A1 (priority 2009, published 2012).
Like-named read-outs stand apart in the source and are kept apart here.

Columns and labels:
[1] = test system: Leptosphaeria nodorum (LEPTNO); experiment: In vitro fungitoxicity of hydrazones with and without copper towards Leptosphaeria nodorum (Example 26); assay type: cell-based; details: 72 h at 25° C.; for inhibition of growth at 0.05 µg/mL: Parastagonospora nodorum, 72 h, copper-minus medium, read-out: LEPTNO % Inhn. Minus Copper Observed
Phytophthora infestans [2] = assay type: in vivo, Phytophthora infestans on tomato; details: applied 24 h before inoculation, assessed 7 days after inoculation
Phytophthora capsici = experiment: In vitro fungitoxicity of hydrazones with and without copper towards Phytophthora capsici (Example 28, Table 3); assay type: cell-based; details: 48 h; for % Inhn Plus copper Observed: copper-plus AS medium (CuCl2, 50 μM); for inhibition of growth at 0.05 µg/mL / inhibition of growth at 0.039 µg/mL: Phytophthora capsici, copper-minus AS medium, read-out: % Inhn Minus copper Observed
Ustilago maydis = experiment: In vitro fungitoxicity of hydrazones with and without copper towards Ustilago maydis (Example 29, Table 4); assay type: cell-based; details: 1 μg/mL, 48 h; for % Inhn. Plus copper Observed: copper-plus medium (CuCl2, 10 μM); for inhibition of growth at 1 µg/mL: Mycosarcoma maydis, copper-minus medium, read-out: % Inhn. Minus copper Observed
[3] = test system: Septoria tritici isolate USA-184; experiment: In vitro fungitoxicity of hydrazones with and without copper towards Septoria tritici (Example 30, Table 5); assay type: cell-based; details: Zymoseptoria tritici, 0.05 μg/mL
Phytophthora infestans [4] = assay type: in vivo, Phytophthora infestans on tomato (Outdoor Girl); details: no hydrazone
[5] = test compound Concn. 0.05 μg/mL
[6] = copper-plus medium (CuCl2 10 μM), test compound Concn. 0.05 μg/mL
[7] = hydrazone 50 ppm with 50 μM CuCl2.2H2O, tomato late blight
[8] = Colby formula, CuCl2, read-out: % Inhibition Plus copper Predicted
[9] = copper-minus medium, 90 h, read-out: % Inhibition Minus copper Observed
[10] = copper-plus medium CuCl2, 90 h, read-out: % Inhibition Plus copper Observed
[11] = compound 0.05 μg/mL, copper-plus medium (CuCl2.2H2O)
[12] = hydrazone 50 ppm + 50 μM CuCl2.2H2O, tomato

Compound | inhibition of growth at 0.05 µg/mL [1, 5] | LEPTNO % Inhn. Plus Copper Observed [1, 6] | TLB % Control (Phytophthora infestans [2]; [7]) | % Inhn Plus copper Observed (Phytophthora capsici; 0.050 μg/mL) | inhibition of growth at 0.05 µg/mL (Phytophthora capsici; 0.050 μg/mL) | % Inhn. Plus copper Observed (Ustilago maydis) | inhibition of growth at 1 µg/mL (Ustilago maydis) | inhibition at 0.05 µg/mL [3, 8] | inhibition at 0.05 µg/mL [3, 9] | inhibition at 0.05 µg/mL [3, 10] | melting point | inhibition of growth at 0.05 µg/mL ([1]; compound 0.05 μg/mL) | LEPTNO % Inhn. Plus Copper Observed [1, 11] | TLB % Control (Phytophthora infestans [2]; [12]) | further results
O=C(N/N=C/c1cccc(Cl)c1O)c1cccc(Cl)c1 [Example 427] | 26.1% | 97.9% | 98.0% | 88.6% | 9.1% | 89.3% | 34.3% | 43.8% | 43.8% | 96.7% | 174 to 178 °C |  |  |  | 
C/C(=N\NC(=O)c1ccccc1)c1ccccc1O [Example 230] |  |  |  | 93.6% | 5.8% | 94.4% | 11.9% | 43.6% | 43.6% | 96.7% | 185 to 187 °C | 9% | 98.3% | 65.0% | 
O=C(N/N=C/c1cccc(C(F)(F)F)c1O)c1ccccc1O [Example 351] | 7.7% | 96.1% | 100.0% | 87.9% | 0% | 97.7% | 27.1% | 44.4% | 44.4% | 97.1% | 230 to 234 °C |  |  |  | 
O=C(N/N=C/c1cc(Cl)cc(C(F)(F)F)c1O)c1ccccc1O [Example 384] | 28.6% | 95.8% | 100.0% | 71.1% | 0% | 96.6% | 13.6% | 57.5% | 57.5% | 97% | 258 to 260 °C |  |  |  | 
C/C(=N\NC(=O)Cc1ccccc1)c1cc(Cl)cc(Cl)c1O [Example 140] |  |  |  | 91.4% | 0% | 95.7% | 0% | 0% | 0% | 96.6% | 199 to 204 °C | 6.7% | 96.7% | 81.0% | 
O.O.O.O.O.O=S(=O)([O-])[O-].[Cu+2] [CuSO4, CuSO4.5H2O, reference compound] |  |  |  |  |  |  |  |  |  |  |  |  |  |  | % Control of Tomato Late Blight (Phytophthora infestans [4]; CuSO4 10 μM alone): 1.7%; % Control of Tomato Late Blight (Phytophthora infestans [4]; CuSO4 50 μM alone): 4.8%; % Control of Tomato Late Blight (Phytophthora infestans [4]; CuSO4 200 μM alone): 49.7%; % Control of Tomato Late Blight (Phytophthora infestans [4]; CuSO4 400 μM alone): 76.0%; % Control of Tomato Late Blight (Phytophthora infestans [4]; CuSO4 800 μM alone): 82.9%
O=C(N/N=C/c1c(C(F)(F)F)ccc(Cl)c1O)c1ccccc1O [Example 455] | 16.7% | 100.0% | 100.0% | 30.8% | 0% | 96.0% | 0% | 27.5% | 27.5% | 92.4% | 278 to 280 °C |  |  |  | 
O=C(N/N=C/c1cc(C(F)(F)F)cc(Cl)c1O)c1ccccc1 [Example 275] |  |  |  | 91.2% | 0% | 92.2% | 0% | 16.2% | 16.2% | 93.5% | 216 to 222 °C | 0% | 98.4% | 79.7% | 
Cc1ccc(C(=O)N/N=C/c2ccc(Cl)c(Cl)c2O)c(O)c1 [Example 364] | 8.4% | 95.8% | 97.0% | 23.2% | 0% | 92.9% | 65.5% | 22.4% | 22.4% | 93.7% | 271 to 278 °C |  |  |  | 
O=C(N/N=C/c1cc(C(F)(F)F)cc(Cl)c1O)c1ccccc1O [Example 329] | 14% | 93.5% | 99.0% |  |  | 41.8% | 16.2% | 14.9% | 14.9% | 55.1% | 258 to 260 °C |  |  |  | 
O=C(N/N=C/c1c(O)cccc1Cl)c1ccc([N+](=O)[O-])cc1 [Example 405] | 2.8% | 96.2% | 98.0% | 85.9% | 0.6% | 90.0% | 9.6% | 18.8% | 18.8% | 89.9% | > 300 °C |  |  |  | 
C/C(=N\NC(=O)c1ccc(Cl)cc1)c1cc(F)cc(F)c1O [Example 578] | 7.2% | 98.0% | 100.0% | 90.4% | 2.8% | 93.8% | 47.4% | 26.7% | 26.7% | 90.7% | 276 to 280 °C |  |  |  | 
O=C(N/N=C/c1cc(Br)cc(Br)c1O)c1ccccc1 [Example 121] |  |  |  | 90.4% | 0% | 96.9% | 0% | 9.7% | 9.7% | 96.5% |  | 0% | 98.3% | 88.1% | 
Cc1ccccc1C(=O)N/N=C/c1cc(Cl)cc(Br)c1O [Example 162] |  |  |  | 91.6% | 5.2% | 96.4% | 8.8% | 36.3% | 36.3% | 97.1% |  | 0% | 96.9% | 94.0% | 
O=C(N/N=C/c1cc(Cl)ccc1O)c1ccccc1O [Example 177] |  |  |  | 92.4% | 0% | 33.3% | 0% | 0.2% | 0.2% | 95.2% |  | 12.5% | 95.2% | 91.0% | 
COc1cc(Br)cc(/C=N/NC(=O)c2cccc(Br)c2)c1O [Example 204] |  |  |  | 81.9% | 6% | 77.0% | 0% | 0% | 0% | 84.4% |  | 7.3% | 95.5% | 77.2% | 
Cc1ccc(C(=O)N/N=C/c2cc(Cl)cc(Cl)c2O)c(Br)c1 [Example 228] |  |  |  | 86.9% | 10% |  |  |  |  |  | 240 to 242 °C | 2.6% | 97.0% | 68.4% | 
COc1cccc(C(=O)N/N=C/c2cc(Cl)cc(Cl)c2O)c1C [Example 99] |  |  |  |  |  |  |  |  |  |  | 192 to 194 °C | 8.9% | 94.5% | 50.3% | % Inhn Plus copper Observed (Phytophthora capsici; 0.039 μg/mL): 94.0%; inhibition of growth at 0.039 µg/mL (Phytophthora capsici; 0.039 μg/mL): 23.6%
O=C(N/N=C/c1cc(Cl)cc(Cl)c1O)c1cc(Cl)ccc1Br [Example 219] |  |  |  | 90.6% | 15.3% |  |  |  |  |  | 228 to 231 °C | 34.5% | 97.9% | 68.4% | 
C/C(=N\NC(=O)Cc1ccc(C(F)(F)F)cc1)c1cc(Cl)cc(Cl)c1O [Example 129] |  |  |  |  |  |  |  |  |  |  | 207 to 212 °C | 5.5% | 97.8% | 49.0% | % Inhn Plus copper Observed (Phytophthora capsici; 0.039 μg/mL): 96.3%; inhibition of growth at 0.039 µg/mL (Phytophthora capsici; 0.039 μg/mL): 10.6%
